Entries after “also recorded” stand apart in the source; their conditions may differ. Where two headings read alike, the source gives them in different places.
Tests used:
SPC-A-1 cells = test: MTT cell viability test, SPC-A-1 cells; format: cell-based; settings: 1-200 μM, 44 h
Text: Antitumor activity test of RPDQ in vitro by using S180, SPC-A-1 and A549 cells
Since the startmaterial for the semi-synthesis of 12-Riboside-pseudoginsengenin DQ (RPDQ) was pseudoginsengenin DQ (PDQ), the antitumor activities of RPDQ […]
and PDQ were both tested.
The SPC-A-1 and S180 tumor cell lines were purchased from Wuhan Procell Life Science & Technology Co,.Ltd. A549 tumor cell lines were purchased from iCell Bioscience Inc (Shanghai) Biological Co., Ltd.
2. Experimental procedure
S180 cells (1 × 10^5 cells/mL) were seeded into a 96-well plate. After 24 h, pretreated with various concentrations of RPDQ or PDQ (1-200 μM) for 44 h at 37℃, and the cells were treated with MTT for 4 h. The formazan crystal product in the cells were dissolved with acid isopropanol. The absorbance was measured at 570 nm with a […]
SPC-A-1/A549 cells(1×10^5 cells/mL) were seeded into a 96-well plate. After 24 h, pretreated with various concentrations of RPDQ or PDQ (1-200 μM) for 44 h at 37℃ , and the cells were treated with MTT for 4 h. […] The absorbance was measured at 490 nm with a […]
Cell viability was calculated by the following formula: Cell viability (%)= 1-{(ODcontrolgroup-ODtreatedgroup)/ODcontrol group×100%}.
All data were processed by statistical software SPSS 17.0. The data were expressed as Mean ± Standard Deviation. The differences between groups were analyzed by one-way analysis of variance. […]

[1] = format: in vitro ADME; settings: rat
Protocol: RPDQ and 20R-panaxadiol stock methanol solutions (1.00 mg/mL) were all prepared with the reference compounds, respectively. Firstly, blank rat plasma was prepared. The blood samples were collected immediately from the abdominal aorta and incubated at 37 °C for 30 min. The plasma was separated by centrifugation at 4000 rpm for 15 min, and was frozen at −20 °C until analysis. By spiking the dilute solutions with blank rat plasma, calibration curves were plotted to produce the points equivalent to 5, 10, 25, 50, 100, 300, 500, and 1000 ng/mL for RPDQ. […] All the QC and calibration standards samples were prepared freshly before analysis. The specificity, linearity, LLOQ, precision and accuracy, extraction recovery, matrix effect, diluted reliability, and stability of the method were validated by following a non-clinical drug pharmacokinetic study technical guideline (China Food And Drug Administration 2014) and the Bioanalytical Method Validation Guideline (Chinese Pharmacopoeia 2015, Vol. 4). Specificity was assessed by comparing blank plasma samples, plasma was spiked with RPDQ and 20R-panaxadiol, and plasma samples were collected after administration. Linearity was analyzed through weighted regression (1/x^2) of peak area ratios (y) of RPDQ to 20R-panaxadiol versus nominal concentration (x) in plasma. […] The intra- and inter-day precision and accuracy were evaluated with the analysis of six replicate QC samples on three consecutive days, respectively. The extraction recovery and matrix effect at three QC concentrations were assayed. By comparing peak areas of RPDQ and 20R-panaxadiol in extracted QC samples with those in post-extracted blank plasma samples, the recoveries were calculated. Moreover, by comparing the peak area of samples spiked after extraction with that of the neat solution’s equivalent concentration, the matrix effect was then evaluated. Stability was evaluated by analyzing replicate QC samples, which were stored at −20 °C for two weeks at room temperature for 4 h, and experienced three freeze/thaw cycles (from −20 °C to room temperature) on consecutive days. The stabilities of RPDQ in stock solutions at 15 °C and stored in plastic autosampler vials for 16 h at 10 °C were also assessed. Five-fold higher concentrations of QC were achieved by adding moderate RPDQ to blank plasma. The samples were then diluted and analyzed with undiluted calibration standards. The accuracy and precision were within acceptable limits (± 15%).

With `CC(C)(O)[C@@H]1CC[C@@](C)([C@H]2CC[C@]3(C)[C@@H]2[C@H](O[C@@H]2O[C@H](CO)[C@@H](O)[C@H]2O)C[C@@H]2[C@@]4(C)CC[C@H](O)C(C)(C)[C@@H]4CC[C@]23C)O1` [RPDQ, 20S, 24S-12-O-β-D-ribofuranosyl-dammar-20, 24-epoxy-3β, 12β, 25-triol] the “anticancer / anti-proliferation effect” value (SPC-A-1 cells) was “good anti-proliferation effects; also recorded: significant anticancer activity”, the Mean concentration ([1]; 15 ng/mL) was 14.96 ± 0.58 ng/mL and the Mean concentration ([1]; 200 ng/mL) was 188.7 ± 16.57 ng/mL. It also gave a Mean concentration ([1]; 800 ng/mL) of 785.21 ± 19.19 ng/mL, an Accuracy ([1]; 3 freeze-thaw cycles, 800 ng/mL) of −1.85% and an Accuracy ([1]; 3 freeze/thaw cycles, 15 ng/mL) of −0.03%. The Accuracy ([1]; 3 freeze/thaw cycles, 200 ng/mL) was −5.65%, the Accuracy ([1]; 4 h, 15 ng/mL) was −1.00% and the Mean concentration ([1]; 4 h, 15 ng/mL) was 14.85 ± 0.72 ng/mL. It also gave an Accuracy ([1]; 4 h, 200 ng/mL) of −5.94%, a Mean concentration ([1]; 4 h, 200 ng/mL) of 188.12 ± 14.00 ng/mL and an Accuracy ([1]; 4 h, 800 ng/mL) of −3.25%. It also gave a Mean concentration ([1]; 4 h, 800 ng/mL) of 773.99 ± 26.01 ng/mL, an Accuracy ([1]; 16 h, 15 ng/mL) of 2.2% and a Mean concentration ([1]; 16 h, 15 ng/mL) of 15.33 ± 1.61 ng/mL. It also gave an Accuracy ([1]; 16 h, 200 ng/mL) of −6.52%, a Mean concentration ([1]; 16 h, 200 ng/mL) of 186.96 ± 13.41 ng/mL and an Accuracy ([1]; 16 h, 800 ng/mL) of 2.03%. The Mean concentration ([1]; 16 h, 800 ng/mL) was 816.23 ± 15.82 ng/mL, the Accuracy ([1]; 14 d, 15 ng/mL) was 2.74% and the Mean concentration ([1]; 14 d, 15 ng/mL) was 15.41 ± 1.47 ng/mL. The Accuracy ([1]; 14 d, 200 ng/mL) was −10.47%, the Mean concentration ([1]; 14 d, 200 ng/mL) was 179.07 ± 14.73 ng/mL and the Accuracy ([1]; 14 d, 800 ng/mL) was −1.71%. The Mean concentration ([1]; 14 d, 800 ng/mL) was 786.32 ± 19.88 ng/mL.
